Data on two molecules can be found in publication PMC4821163 (Organic letters, 2016).

For data set [1], the system named is MDA-MB-231. In kind it is cell-based. Particulars: IC50 MCF-10A divided by IC50 MDA-MB-231.
For data set [2], the system named is HeLa. Type of data set: cell-based. Particulars: for Selectivity index (SI) over MCF-10A cells: IC50 MCF-10A divided by IC50 HeLa.
The test system of data set [3] is U937. Type of data set: cell-based. Conditions: for Selectivity index (SI) over MCF-10A cells: IC50 MCF-10A divided by IC50 U937.
Data set [4] deals with MCF7. In kind it is cell-based. Conditions: IC50 MCF-10A divided by IC50 MCF7.
For data set [5], the system named is MCF-10A. Type of data set: cell-based. Conditions: for Selectivity index (SI), overall statement: tested cancer cell lines, MCF-10A as reference nontumor cell line.
Data set [6] deals with Jurkat. Type of data set: cell-based. Conditions: for Selectivity index (SI) over MCF-10A cells: IC50 MCF-10A divided by IC50 Jurkat.
Data set [7] relates to cancer cell lines. Particulars: several cancer cell lines; cited from earlier work.
For data set [8], the system named is NIH/3T3. Type of data set: cell-based. Particulars: read-out: Cell cytotoxicity IC50; NIH/3T3 nontumor cell line.

In the case of `CC(=O)O[C@H]1C(=O)[C@@]2(C)[C@H]([C@H](OC(=O)c3ccccc3)[C@]3(O)C[C@H](OC(=O)[C@H](O)[C@@H](NC(=O)c4ccccc4)c4ccccc4)C(C)=C1C3(C)C)[C@]1(OC(C)=O)CO[C@@H]1C[C@@H]2O` [paclitaxel], the “Selectivity index (SI) over MCF-10A cells” value in data set [1] is recorded as 8.04; in data set [2] it was 25.6; in data set [3], 15.2; in data set [4], 3.73; in data set [6] it was 14.6. Besides, the “Selectivity index (SI), overall statement” value in data set [5] is on record as “good selectivity in general”.

A word on the IC50: it is the point on the concentration scale where inhibition reaches its midpoint. Consider `C/C=C(\C)C(=O)O[C@@H]1[C@@H](O)[C@@H]2O[C@H]3[C@H](O[C@@H](CCCCC)CCCCCCC(=O)CCC(=O)OC[C@@H](O2)[C@H]1OC(=O)/C=C/c1ccccc1)O[C@H](C)[C@H](OC(C)=O)[C@@H]3O` [ipomoeassin F], for which the “Selectivity index (SI) over MCF-10A cells” value is recorded as 0.83 in data set [1]; 0.33 in data set [2]; 1 in data set [3]; 0.12 in data set [4]; 0.89 in data set [6]. Further, the “IC50 values against cancer cell growth, in words” value in data set [7] is listed as “single-digit nanomolar range”. In addition, the IC50 in data set [2] (read-out: Cell cytotoxicity IC50, HeLa cells) amounted to 16.4 nM; in data set [3] (read-out: Cell cytotoxicity IC50, U937 cells) it was 5.4 nM; in data set [5] (read-out: Cell cytotoxicity IC50, MCF-10A nontumor cell line) it was 5.4 nM; in data set [6] (read-out: Cell cytotoxicity IC50, Jurkat cells), 6.1 nM; in data set [8], 16.8 nM. The “Selectivity index (SI), overall statement” value in data set [5] is listed as under 1.
